Biological target: T1, human ALK5 (Homo sapiens, UniProt P36897)
T1 construct: human ALK5 (recombinant TGF β1 N-term GST-tagged, 80-end); GST (N); purchased
T1 sequence (P36897 80-503 limits assumed): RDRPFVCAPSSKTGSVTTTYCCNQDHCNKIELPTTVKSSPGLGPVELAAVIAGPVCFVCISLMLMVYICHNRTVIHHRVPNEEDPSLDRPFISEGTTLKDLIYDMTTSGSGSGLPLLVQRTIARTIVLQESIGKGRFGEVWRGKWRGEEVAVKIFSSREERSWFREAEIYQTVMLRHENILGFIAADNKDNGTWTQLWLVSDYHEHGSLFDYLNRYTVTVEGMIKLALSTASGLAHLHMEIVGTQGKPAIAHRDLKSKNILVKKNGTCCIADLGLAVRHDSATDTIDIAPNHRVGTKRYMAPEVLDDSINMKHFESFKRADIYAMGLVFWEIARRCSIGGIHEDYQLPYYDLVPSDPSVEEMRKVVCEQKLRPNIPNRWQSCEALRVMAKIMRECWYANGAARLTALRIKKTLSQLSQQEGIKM
Test: ADP-GLO Kinases assay of ALK5 enzymatic activity
Type: biochemical
Details: purified recombinant human ALK5, TGFβ1 peptide substrate, pIC50 converted to pKi by Cheng-Prusoff, high ATP protocol (15 μM) for very potent compounds, 25° C.
In short: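 Purified ALK5 preincubated 15 min with compound, then reacted with substrate and ATP; ADP formed read by ADP-Glo luminescence after 120 min or 60 min reaction, all steps at 25° C. 11-point concentration-response; pIC50 converted to pKi via Cheng-Prusoff.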

Structure (SMILES) | Ki [nM]
CN1C[C@@H]2C[C@H]1CN2[C@H]1C[C@@H](C(=O)Nc2cc(Nc3cc(-c4cc(Cl)ccc4F)nnc3SCCO)ccn2)C1 [Example 87, Cis N-(4-{[6-(5-chloro-2-fluorophenyl)-3-[(2-hydroxyethyl)sulfanyl]pyridazin-4-yl]amino}pyridin-2-yl)-3-[(1S,4S)-5-methyl-2,5-diazabicyclo[2.2.1]heptan-2-yl]cyclobutane-1-carboxamide] | ≤ 0.1
CN1C[C@@H]2C[C@H]1CN2[C@H]1C[C@H](C(=O)Nc2cc(Nc3cc(-c4cc(Cl)ccc4F)nnc3SCCO)ccn2)C1 [Example 88, Trans N-(4-{[6-(5-chloro-2-fluorophenyl)-3-[(2-hydroxyethyl)sulfanyl]pyridazin-4-yl]amino}pyridin-2-yl)-3-[(1S,4S)-5-methyl-2,5-diazabicyclo[2.2.1]heptan-2-yl]cyclobutane-1-carboxamide] | ≤ 0.1
O=C(Nc1cc(Nc2cc(-c3cc(Cl)ccc3F)nnc2SCCO)ccn1)[C@H]1C[C@@H](N2CCSCC2)C1 [Example 89, Cis N-(4-{[6-(5-chloro-2-fluorophenyl)-3-[(2-hydroxyethyl)sulfanyl]pyridazin-4-yl]amino}pyridin-2-yl)-3-(thiomorpholin-4-yl)cyclobutane-1-carboxamide] | ≤ 0.1
CN1CCN([C@H]2C[C@@H](C(=O)Nc3cc(Nc4cc(-c5cc(Cl)ccc5F)nnc4SCCO)ccn3)C2)CC12CC2 [Example 90, Cis N-(4-{[6-(5-chloro-2-fluorophenyl)-3-[(2-hydroxyethyl)sulfanyl]pyridazin-4-yl]amino}pyridin-2-yl)-3-{4-methyl-4,7-diazaspiro[2.5]octan-7-yl}cyclobutane-1-carboxamide] | ≤ 0.1
CN1CCN([C@H]2C[C@@H](C(=O)Nc3cc(Nc4cc(-c5cc(Cl)ccc5F)nnc4SCCO)ncn3)C2)CC1 [Example 91, Cis N-(6-{[6-(5-chloro-2-fluorophenyl)-3-[(2-hydroxyethyl)sulfanyl]pyridazin-4-yl]amino}pyrimidin-4-yl)-3-(4-methylpiperazin-1-yl)cyclobutane-1-carboxamide] | 0.126 to 0.316
COC(=O)c1sc(Nc2cc(Nc3cc(-c4cc(Cl)ccc4F)nnc3SCCO)ccn2)cc1C1CCN(C)CC1 [Example 92, methyl 5-[(4-{[6-(5-chloro-2-fluorophenyl)-3-[(2-hydroxyethyl)sulfanyl]pyridazin-4-yl]amino}pyridin-2-yl)amino]-3-(1-methylpiperidin-4-yl)thiophene-2-carboxylate] | ≤ 0.1
CN1CCN(CCC(=O)Nc2cc(Nc3cc(-c4cc(Cl)ccc4F)nnc3SC(C)(C)CO)ccn2)CC1 [Example 93, N-(4-{[6-(5-chloro-2-fluorophenyl)-3-[(1-hydroxy-2-methylpropan-2-yl)sulfanyl]pyridazin-4-yl]amino}pyridin-2-yl)-3-(4-methylpiperazin-1-yl)propanamide] | 0.126 to 0.316
CN1CCN([C@H]2C[C@@H](C(=O)Nc3cc(Nc4cc(-c5cc(Cl)ccc5F)nnc4SC(C)(C)CO)ccn3)C2)CC1 [Example 94, Cis N-(4-{[6-(5-chloro-2-fluorophenyl)-3-[(1-hydroxy-2-methylpropan-2-yl)sulfanyl]pyridazin-4-yl]amino}pyridin-2-yl)-3-(4-methylpiperazin-1-yl)cyclobutane-1-carboxamide] | ≤ 0.1
CN1CCN(CCC(=O)Nc2cc(Nc3cc(-c4cc(Cl)ccc4F)nnc3N3CC(CO)C3)ccn2)CC1 [Example 95, N-(4-{[6-(5-chloro-2-fluorophenyl)-3-[3-(hydroxymethyl)azetidin-1-yl]pyridazin-4-yl]amino}pyridin-2-yl)-3-(4-methylpiperazin-1-yl)propanamide] | ≤ 0.1
CN1CCN([C@H]2C[C@@H](C(=O)Nc3cc(Nc4cc(-c5cc(Cl)ccc5F)nnc4N(C)C)ccn3)C2)CC1 [Example 97, cis N-(4-{[6-(5-chloro-2-fluorophenyl)-3-(dimethylamino)pyridazin-4-yl]amino}pyridin-2-yl)-3-(4-methylpiperazin-1-yl)cyclobutane-1-carboxamide] | ≤ 0.1
COC(=O)C1CN(c2nnc(-c3cc(Cl)ccc3F)cc2Nc2ccnc(NC(=O)CCN3CCN(C)CC3)c2)C1 [Example 98, methyl 1-[6-(5-chloro-2-fluorophenyl)-4-({2-[3-(4-methylpiperazin-1-yl)propanamido]pyridin-4-yl}amino)pyridazin-3-yl]azetidine-3-carboxylate] | 0.126 to 0.316
CN1CCN(CCC(=O)Nc2cc(Nc3cc(-c4cc(Cl)ccc4F)nnc3N3CC(C(=O)O)C3)ccn2)CC1 [Example 99, 1-[6-(5-chloro-2-fluorophenyl)-4-({2-[3-(4-methylpiperazin-1-yl)propanamido]pyridin-4-yl}amino)pyridazin-3-yl]azetidine-3-carboxylic acid] | 0.126 to 0.316
CC(C)OC(=O)C1CN(c2nnc(-c3cc(Cl)ccc3F)cc2Nc2ccnc(NC(=O)CCN3CCN(C)CC3)c2)C1 [Example 100, propan-2-yl 1-[6-(5-chloro-2-fluorophenyl)-4-({2-[3-(4-methylpiperazin-1-yl)propanamido]pyridin-4-yl}amino)pyridazin-3-yl]azetidine-3-carboxylate] | 0.126 to 0.316
CN1CCN(CCC(=O)Nc2cc(Nc3cc(-c4cc(Cl)ccc4F)nnc3NCc3cccc(O)c3)ccn2)CC1 [Example 101, N-(4-{[6-(5-chloro-2-fluorophenyl)-3-{[(3-hydroxyphenyl)methyl]amino}pyridazin-4-yl]amino}pyridin-2-yl)-3-(4-methylpiperazin-1-yl)propanamide] | ≤ 0.1
CN1CCN(CCC(=O)Nc2cc(Nc3cc(-c4cc(Cl)ccc4F)nnc3N(C)Cc3cccc(O)c3)ccn2)CC1 [Example 102, N-(4-{[6-(5-chloro-2-fluorophenyl)-3-{[(3-hydroxyphenyl)methyl](methyl)amino}pyridazin-4-yl]amino}pyridin-2-yl)-3-(4-methylpiperazin-1-yl)propanamide] | 0.126 to 0.316
CN1CCN(CCC(=O)Nc2cc(Nc3cc(-c4cc(Cl)ccc4F)nnc3N(C)CC3CCOC3=O)ccn2)CC1 (centres unmarked) [Example 108, N-(4-{[6-(5-chloro-2-fluorophenyl)-3-{methyl[(2-oxooxolan-3-yl)methyl]amino}pyridazin-4-yl]amino}pyridin-2-yl)-3-(4-methylpiperazin-1-yl)propanamide] | ≤ 0.1
COC(=O)C1CN(c2nnc(-c3cc(Cl)ccc3F)cc2Nc2ccnc(NC(=O)CN3C[C@@H]4C[C@H]3CN4C)c2)C1 [Example 109, methyl 1-[6-(5-chloro-2-fluorophenyl)-4-[(2-{2-[(1S,4S)-5-methyl-2,5-diazabicyclo[2.2.1]heptan-2-yl]acetamido}pyridin-4-yl)amino]pyridazin-3-yl]azetidine-3-carboxylate] | ≤ 0.1
CN1CCN(CCC(=O)Nc2cc(Nc3cc(-c4cc(Cl)ccc4F)nnc3N(C)CCC(O)C(F)(F)F)ccn2)CC1 (centres unmarked) [Example 110, N-(4-{[6-(5-chloro-2-fluorophenyl)-3-[methyl(4,4,4-trifluoro-3-hydroxybutyl)amino]pyridazin-4-yl]amino}pyridin-2-yl)-3-(4-methylpiperazin-1-yl)propanamide] | ≤ 0.1
CN1CCN([C@H]2C[C@@H](C(=O)Nc3cc(Nc4cc(-c5cc(Cl)ccc5F)nnc4SCC4COC(C)(C)O4)ccn3)C2)CC1 (stereo partly drawn) [Example 115, Cis N-(4-{[6-(5-chloro-2-fluorophenyl)-3-{[(2,2-dimethyl-1,3-dioxolan-4-yl)methyl]sulfanyl}pyridazin-4-yl]amino}pyridin-2-yl)-3-(4-methylpiperazin-1-yl)cyclobutane-1-carboxamide] | ≤ 0.1
CN1CCN(CCC(=O)Nc2cc(Nc3cc(-c4cc(Cl)ccc4F)nnc3OCc3ccc4c(c3)OC(C)(C)O4)ccn2)CC1 [Example 116, N-(4-{[6-(5-chloro-2-fluorophenyl)-3-[(2,2-dimethyl-2H-1,3-benzodioxol-5-yl)methoxy]pyridazin-4-yl]amino}pyridin-2-yl)-3-(4-methylpiperazin-1-yl)propanamide] | 0.126 to 0.316
CN1CCN([C@H]2C[C@@H](C(=O)Nc3cc(Nc4cc(-c5cc(Cl)ccc5F)nnc4OCc4cccc(O)c4)ccn3)C2)CC1 [Example 119, Cis N-(4-{[6-(5-chloro-2-fluorophenyl)-3-[(3-hydroxyphenyl)methoxy]pyridazin-4-yl]amino}pyridin-2-yl)-3-(4-methylpiperazin-1-yl)cyclobutane-1-carboxamide] | ≤ 0.1
CN1C[C@@H]2C[C@H]1CN2CC(=O)Nc1cc(Nc2cc(-c3cc(Cl)ccc3F)nnc2OCc2cccc(O)c2)ccn1 [Example 120, N-(4-{[6-(5-chloro-2-fluorophenyl)-3-[(3-hydroxyphenyl)methoxy]pyridazin-4-yl]amino}pyridin-2-yl)-2-[(1S,4S)-5-methyl-2,5-diazabicyclo[2.2.1]heptan-2-yl]acetamide] | ≤ 0.1
CN1C[C@@H]2C[C@H]1CN2CC(=O)Nc1cc(Nc2cc(-c3cc(Cl)ccc3F)nnc2OC[C@H]2C[C@@H](O)C2)ccn1 [Example 122, N-(4-{[6-(5-chloro-2-fluorophenyl)-3-[(3-hydroxycyclobutyl)methoxy]pyridazin-4-yl]amino}pyridin-2-yl)-2-[(1S,4S)-5-methyl-2,5-diazabicyclo[2.2.1]heptan-2-yl]acetamide] | ≤ 0.1

— patent publication US20250011299A1, “PYRIDAZINYL AMINO DERIVATIVES AS ALK5 INHIBITORS” (CHIESI FARMACEUTICI S.P.A., priority 2021, published 2025)
